According to patent publication US20230321186A1, “Mucin Glycans as Antifungal Agents” (Massachusetts Institute of Technology, priority 2022, published 2023):

Key:
Format in all cases: cell-based, Candida albicans
[1] = system: C. albicans; assay: Filamentation assay (hyphal growth, phase-contrast images); conditions: 0.4%, RPMI, 37° C., 8 h, vs monosaccharide pool and medium alone
Description: Hyphal growth of C. albicans was induced by diluting cells to OD600=0.05 into prewarmed hyphae-inducing medium as indicated and incubating at 37° C. (200 rpm) in a glass-bottom, 96-well plate. Cells were grown in hyphae-inducing medium for several hours, as described in BRIEF DESCRIPTION OF THE DRAWINGS. Images were acquired with a confocal laser scanning microscope (Zeiss, Oberkochen, Germany; LSM 800) equipped with a ×63/1.4 NA oil-immersion or a 25× objective. Images were analyzed using Zeiss ZEN v.2.1. Representative micrographs are shown.

[2] = system: C. albicans SC5314; assay: RT-qPCR analysis of C. albicans gene expression; conditions: for suppression of filamentation-associated genes: broader range of genes, six synthetic glycans, FIG. 9E; for effect of the added sugar on the gene regulatory activity (YWP1, ECE1) of the unmodified Core: compared with Core 1 or Core 2; for ECE1 transcription / YWP1 transcription: modified Core structures, FIGS. 9C-9D; for YWP1 expression: 0.1% (w/v) synthetic glycan
Description: For RNA extraction from C. albicans grown in the presence or absence of mucin glycans, 100 μL of RPMI or 0.1% w/v MUC5AC glycans in RPMI were inoculated with a 1:50 dilution of an overnight culture of strain SC5314 and incubated at 37° C. for the time indicated. Total RNA was extracted with the MasterPure RNA Purification Kit (Lucigen, Middleton, WI) and residual DNA was removed using the Turbo DNA-free kit (Ambion, Austin, TX). The integrity of the total RNA was assessed using an Agilent 2100 Bioanalyzer (Agilent Technologies, Santa Clara, CA). rRNA was removed using the Ribo-Zero® rRNA Removal Kit (Yeast; Epicentre).
A list of the primers used in this study is provided in Table 1. qPCR with reverse transcription (RT-qPCR) was performed using a two-step method. First-strand cDNA was synthesized from total RNA using the […] First Strand cDNA Synthesis kit (New England Biolabs, Ipswich, MA). The cDNA was used as template for RT-qPCR using a SYBR PowerUp Master Mix kit (Applied Biosystems, Life Technologies) on a Roche LightCycler 480 real-time PCR system. The ACT1 and 18S rRNA genes were used as endogenous controls as specified. […] Changes in gene expression were calculated based on mean change in qPCR cycle threshold (ΔCt) using the ΔΔCt method (fold change=[…]).

[3] = system: C. albicans; assay: C. albicans growth (growth curves); conditions: 0.1% (w/v)
Description: Strains were maintained on yeast extract peptone dextrose (YPD) agar (2% Bacto peptone, 2% glucose, 1% yeast extract, 2% agar) and grown at 30° C. Single colonies were inoculated into YPD broth and grown with shaking overnight at 30° C. prior to each experiment. Experiments were performed with Gibco RPMI 1640 medium (Life Technologies, Carlsbad, CA; #31800-089) buffered with 165 mM 3-(N-morpholino)propanesulfonic acid (MOPS) and supplemented with 0.2% NaHCO3 and 2% glucose; YPD medium with 10% fetal bovine serum; GlcNAc medium (0.5% N-acetylglucosamine, 0.5% peptone, 0.3% KH2PO4); Spider medium (1% nutrient broth, 1% D-mannitol, 2 g K2HPO4, 50 mg/mL arginine, 10 mg/mL histidine, and 50 mg/mL tryptophan); or Lee's medium^45. Growth curves were performed in Synthetic Defined (SD)+0.004% (w/v) L-Arginine+0.0025% (w/v) L-Leucine media with 2% glucose.

[4] = system: C. albicans SC5314; assay: RT-qPCR analysis of C. albicans gene expression; conditions: for ECE1 expression: 0.1% and 0.4%; for YWP1 expression on concentration increase: increase to 0.4% (w/v)

## CO[C@H]1O[C@H](CO)[C@H](O)[C@H](O[C@@H]2O[C@H](CO)[C@H](O)[C@H](O)[C@H]2O[C@@H]2O[C@@H](C)[C@@H](O)[C@@H](O)[C@@H]2O)[C@H]1NC(C)=O [Core 1+fucose, Methyl α-L-fucopyranosyl-(1→2)-β-D-galactopyranosyl-(1→3)-2-acetamido-2-deoxy-α-D-galactopyranoside]
[1]
  filamentation, synthetic glycan structures: most potently blocked filamentation
[2]
  suppression of filamentation-associated genes: strongest suppression
  effect of the added sugar on the gene regulatory activity (YWP1, ECE1) of the unmodified Core: did not measurably alter
  ECE1 transcription: downregulating ECE1
  YWP1 transcription: transcriptionally upregulated YWP1

## CO[C@H]1O[C@H](CO)[C@H](O)[C@H](O[C@@H]2O[C@H](CO)[C@H](O)[C@H](O[C@]3(C(=O)[O-])C[C@H](O)[C@@H](NC(C)=O)[C@H]([C@H](O)[C@H](O)CO)O3)[C@H]2O)[C@H]1NC(C)=O.[Na+] [Core 1+sialic acid, Methyl 3-O-(sodium 5-acetamido-3,5-dideoxy-D-glycero-α-D-galacto-2-nonulopyranosylonate)-β-D-galactopyranosyl-(1→3)-2-acetamido-2-deoxy-α-D-galactopyranoside]
[1]
  filamentation, synthetic glycan structures: less effective at suppressing filamentation
[2]
  suppression of filamentation-associated genes: weakest effect
  effect of the added sugar on the gene regulatory activity (YWP1, ECE1) of the unmodified Core: dampened the gene regulatory response of Core 1
  ECE1 transcription: downregulating ECE1
  YWP1 transcription: transcriptionally upregulated YWP1

## CO[C@H]1O[C@H](CO)[C@H](O)[C@H](O[C@@H]2O[C@H](CO)[C@H](O)[C@H](O)[C@H]2O)[C@H]1NC(C)=O [Core 1, Methyl β-D-galactopyranosyl-(1→3)-2-acetamido-2-deoxy-α-D-galactopyranoside]
[1]
  filamentation, synthetic glycan structures: most potently blocked filamentation
[2]
  YWP1 expression: upregulated YWP1 expression at 0.1% (w/v) to a similar degree as the intact mucin pool
  suppression of filamentation-associated genes: strongest suppression
[3]
  toxic effects, as measured by C. albicans growth: Neither Core 1 nor Core 2 showed toxic effects
[4]
  ECE1 expression: suppressed ECE1 expression at 0.1% and 0.4%, albeit less strongly than the mucin glycan pool
  YWP1 expression on concentration increase: did not significantly alter YWP1 expression

## CO[C@H]1O[C@H](CO[C@@H]2O[C@H](CO)[C@@H](O)[C@H](O)[C@H]2NC(C)=O)[C@H](O)[C@H](O[C@@H]2O[C@H](CO)[C@H](O)[C@H](O)[C@H]2O[C@@H]2O[C@@H](C)[C@@H](O)[C@@H](O)[C@@H]2O)[C@H]1NC(C)=O [Core 2+fucose, Methyl α-L-fucopyranosyl-(1→2)-β-D-galactopyranosyl-(1→3)-[2-acetamido-2-deoxy-β-D-glucopyranosyl-(1→6)]-2-acetamido-2-deoxy-α-D-galactopyranoside]
[2]
  effect of the added sugar on the gene regulatory activity (YWP1, ECE1) of the unmodified Core: did not measurably alter
  ECE1 transcription: downregulating ECE1
  YWP1 transcription: transcriptionally upregulated YWP1

## CO[C@H]1O[C@H](CO[C@@H]2O[C@H](CO)[C@@H](O[C@@H]3O[C@H](CO)[C@H](O)[C@H](O)[C@H]3O)[C@H](O)[C@H]2NC(C)=O)[C@H](O)[C@H](O[C@@H]2O[C@H](CO)[C@H](O)[C@H](O)[C@H]2O)[C@H]1NC(C)=O [Core 2+galactose, Methyl β-D-galactopyranosyl-(1→4)-2-acetamido-2-deoxy-β-D-glucopyranosyl-(1→6)-[β-D-galactopyranosyl-(1→3)]-2-acetamido-2-deoxy-α-D-galactopyranoside]
[1]
  filamentation, synthetic glycan structures: most potently blocked filamentation
[2]
  suppression of filamentation-associated genes: strongest suppression
  effect of the added sugar on the gene regulatory activity (YWP1, ECE1) of the unmodified Core: did not significantly alter Core 2 activity
  ECE1 transcription: downregulating ECE1
  YWP1 transcription: transcriptionally upregulated YWP1

## CO[C@H]1O[C@H](CO[C@@H]2O[C@H](CO)[C@@H](O)[C@H](O)[C@H]2NC(C)=O)[C@H](O)[C@H](O[C@@H]2O[C@H](CO)[C@H](O)[C@H](O)[C@H]2O)[C@H]1NC(C)=O [Core 2, Methyl β-D-galactopyranosyl-(1→3)-[2-acetamido-2-deoxy-β-D-glucopyranosyl-(1→6)]-2-acetamido-2-deoxy-α-D-galactopyranoside]
[2]
  YWP1 expression: upregulated YWP1 expression at 0.1% (w/v) to a similar degree as the intact mucin pool
[3]
  toxic effects, as measured by C. albicans growth: Neither Core 1 nor Core 2 showed toxic effects
[4]
  ECE1 expression: suppressed ECE1 expression at 0.1% and 0.4%, albeit less strongly than the mucin glycan pool
  YWP1 expression on concentration increase: did not significantly alter YWP1 expression
